Where two headings read alike, the source gives them in different places.
Assays:
LAB [1] = assay: Incubation of individual ginsenosides with LAB (metabolic pathway); type: in vitro ADME; settings: individual ginsenoside 10 μM with LAB (1 billion CFU), 7 days; GF2 to CK, CK to PPD, GRg1 to GRh1; result in words
Procedure: (§1) To identify the effects of LAB on ginsenoside metabolism, an in vitro fermentation study was performed according to the method of Jeon et al., with slight modifications. Briefly, RGE (10 mL, 1 pouch) and 2 g LAB (containing 1 billion CFU) were suspended in 10 mL autoclaved MRS broth (550 mg broth powder dissolved in 10 mL water). For the 15 ginsenosides, individual ginsenosides (10 μM each) and 2 g of LAB were suspended in 20 mL of autoclaved MRS broth (550 mg broth powder dissolved in 20 mL water). The mixture was incubated for 7 days in a shaking incubator at 37 °C and 300 rpm, and a 0.1 mL aliquot of the incubation mixture was collected on days 0, 3, 5, and 7. The incubation medium was diluted 100-fold with distilled water and stored at −80 °C to analyze ginsenosides using the LC-MS/MS system.
(§2) To measure the metabolic activity of ginsenosides, the formation rate of ginsenosides (pmol/day) was calculated by dividing the slope of the regression line by the amount of deglycosylated ginsenosides versus the incubation time plot by the initial concentration of individual ginsenosides.

P-gp = target: T1, P-gp (Homo sapiens, UniProt P08183); assay: Transport of ginsenosides in P-gp-overexpressing LLC-PK1-P-gp cells; type: in vitro ADME; settings: pig
T1 construct: host or cells: LLC-PK1-P-gp cells (passage no. 25–28)
Procedure: LLC-PK1-P-gp cells (passage no. 25–28) were seeded onto collagen-coated permeable support (1.0 μm pore size) in 24-well plates at a density of 2.5 × 10^4 cells/insert and grown for 5 days with TEER values of over 500 Ω·cm^2 [24]. The A to B transport and B to A transport of GRg3, GRh2, CK, PPD, GRg1, GRh1, and PPT (20 μM each) were measured as previously described. The concentration dependency in the B to A transport of GRh2, CK, PPD, and PPT was measured in the range of 6.25–200 μM for GRh2, CK, PPD, and PPT.
(§3) For the transport study of ginsenosides in CaCo-2 cells and LLC-PK1-P-gp cells, the ginsenoside transport rate in the A to B or B to A directions was calculated from the slope of the regression line from the mean transported amounts versus time plot. The apparent permeability (Papp) was calculated using Equation (1). (1) Papp (×10^−6 cm/s)=transport rate (nmol/min)/concentration(μM)×area(cm^2)×60s
(§4) The efflux ratio was calculated by dividing the Papp of ginsenosides from the B to A direction by that from the A to B direction.
To measure the kinetic parameters of the concentration dependence on the P-gp-mediated ginsenoside efflux, the ginsenoside transport rate in the B to A direction (ν) versus the ginsenoside concentration (S) plot was fitted in the Michaelis–Menten Equation (2) using Sigma Plot (version 12.0, Systat Software Inc. Chicago, IL, USA). (2) ν=Vmax×S/Km+S

[2] = rat, in vivo, po; cited from earlier work
[3] = Pharmacokinetic study of ginsenosides in healthy humans after repeated oral RGE with or without LAB; type: in vivo, human; settings: human, in vivo, po; for AUC: 104.1 mg
Procedure: A single-sequence study consisting of two periods was conducted on five healthy male subjects (body weight > 50 kg and age > 19 years) for 29 days. During the first period of the study (RGE treatment group), three pouches of RGE (30 mL, 104.1 mg of total ginsenosides) were administered to 5 subjects once daily for 14 days. On the 14th day, the subjects were admitted to the Clinical Trial Center of KNUH at 7 AM and underwent the last RGE administration at approximately 8–9 AM. Blood samples (approximately 3 mL) were collected at 0, 4, 6, 8, 10, 12, 13, 14, and 24 h after the last dose. A saline-locked angiocatheter was placed on the forearm of each subject’s hand. After discarding 1 mL of blood derived from the catheter, 3 mL of blood was drawn into a vacutainer tube containing heparin and centrifuged at 3000× g for 10 min. The supernatant plasma samples were stored at −80 °C until ginsenoside analysis.
In the second half of the study (RGE + LAB treatment group), 3 pouches of RGE (30 mL, 104.1 mg of total ginsenosides) and 1 pouch of LAB (1 billion CFU/2 g) were co-administered once daily for 14 days. On the […], the subjects were admitted to the Clinical Trial Center of KNUH at 7 AM and received the last red ginseng dose at approximately 8–9 AM. Blood samples (approximately 3 mL) were withdrawn at 0, 4, 6, 8, 10, 12, 13, 14, and 24 h intervals after the last dose and centrifuged at 3000× g for 10 min; the supernatant plasma samples were stored at −80 °C.
Briefly, to analyze GRb1, GRb2, GRc, GRd, GRe, GRf, GRg1, GRg3, GF1, and GF2, 400 μL of an internal standard (IS; 0.05 ng/mL berberine in methanol) was added to 100 μL of plasma. The mixture was vortexed for 15 min and centrifuged at 16,000× g for 5 min. After centrifugation, 400 μL of the supernatant was evaporated using a speed-dry vacuum concentrator (Christ, Osterode am Harz, Germany). The residue was reconstituted using 200 μL of 70% methanol supplemented with 0.1% formic acid, and a 10 μL aliquot was injected into the LC-MS/MS system. Chromatographic separation was performed using a Polar RP column (150 × 2.0 mm, 4.0 μm particle size; Phenomenex, Torrance, CA, USA) using a mobile phase consisting of 0.1% formic acid in water (phase A) and 0.1% formic acid in methanol (phase B). The following elution gradient was used: 69% of phase B for 0–2.0 min, 69–85% of phase B for 2.0–4.0 min, and 85–69% of phase B for 6.0–6.5 min. The flow rate was 0.27 mL/min.
The mixture was vortexed for 10 min and centrifuged at 16,000× g for 5 min. After centrifugation, the samples were frozen at −80 °C for 4 h. The upper layer was transferred to a clean tube and evaporated. The residue was reconstituted using 200 μL of 80% methanol supplemented with 0.1% formic acid, and a 10 μL aliquot was injected into the LC-MS/MS system. Chromatographic separation was performed using a Luna C18 column (150 × 2.0 mm, 3.0 μm particle size; Phenomenex, Torrance, CA, USA) and using a mobile phase consisting of water containing 0.1% formic acid: methanol containing 0.1% formic acid = 8:92 (v/v) at a flow rate of 0.15 mL/min.
The quantification of ginsenosides was carried out using multiple reaction monitoring in positive ionization mode, as previously described.
Finally, pharmacokinetic parameters were calculated using non-compartmental methods (WinNonlin version 5.1; Pharsight Co., Certara, NJ, USA). Statistical analysis was performed by Student’s t-test to compare the two groups using IBM SPSS Statistics for Windows (version 25.0; IBM Corp., Armonk, NY, USA). Differences were considered significant at p < 0.05.

LAB [4] = assay: In vitro RGE fermentation with LAB; type: in vitro ADME
Procedure: as §1, §2

[5] = Transport (permeability) of ginsenosides in CaCo-2 cell monolayers; type: in vitro ADME; settings: human, Caco-2
Procedure: (§5) CaCo-2 cells (passage no 41–43) were seeded onto collagen-coated permeable support (1.0 μm pore size) in a 24-well plate at a density of 2.5 × 10^4 cells/insert and cultured for 21 days in Dulbecco’s modified eagle’s medium supplemented with 10% fetal bovine serum, 1% non-essential amino acids, and 1% penicillin-streptomycin at 37 °C in a humidified atmosphere (5% CO2/95% air). After confirming that the transepithelial electrical resistance (TEER) of the CaCo-2 cell monolayer was over 400 Ω·cm^2, Apical to basal (A to B) transport and B to A transport of ginsenosides using 50 µM, GRb1 was investigated as previously described. The same permeability study was performed using 50 µM GRb2, GRc, GRd, GRg3, GRh2, GF2, CK, PPD, GRe, GRf, GRg1, GRh1, GF1, or PPT.
as §3, §4

CaCo-2 cells = assay: as above; type: in vitro ADME; settings: Caco-2
Procedure: as §5, §3, §4

T1 sequence (P08183 whole entry): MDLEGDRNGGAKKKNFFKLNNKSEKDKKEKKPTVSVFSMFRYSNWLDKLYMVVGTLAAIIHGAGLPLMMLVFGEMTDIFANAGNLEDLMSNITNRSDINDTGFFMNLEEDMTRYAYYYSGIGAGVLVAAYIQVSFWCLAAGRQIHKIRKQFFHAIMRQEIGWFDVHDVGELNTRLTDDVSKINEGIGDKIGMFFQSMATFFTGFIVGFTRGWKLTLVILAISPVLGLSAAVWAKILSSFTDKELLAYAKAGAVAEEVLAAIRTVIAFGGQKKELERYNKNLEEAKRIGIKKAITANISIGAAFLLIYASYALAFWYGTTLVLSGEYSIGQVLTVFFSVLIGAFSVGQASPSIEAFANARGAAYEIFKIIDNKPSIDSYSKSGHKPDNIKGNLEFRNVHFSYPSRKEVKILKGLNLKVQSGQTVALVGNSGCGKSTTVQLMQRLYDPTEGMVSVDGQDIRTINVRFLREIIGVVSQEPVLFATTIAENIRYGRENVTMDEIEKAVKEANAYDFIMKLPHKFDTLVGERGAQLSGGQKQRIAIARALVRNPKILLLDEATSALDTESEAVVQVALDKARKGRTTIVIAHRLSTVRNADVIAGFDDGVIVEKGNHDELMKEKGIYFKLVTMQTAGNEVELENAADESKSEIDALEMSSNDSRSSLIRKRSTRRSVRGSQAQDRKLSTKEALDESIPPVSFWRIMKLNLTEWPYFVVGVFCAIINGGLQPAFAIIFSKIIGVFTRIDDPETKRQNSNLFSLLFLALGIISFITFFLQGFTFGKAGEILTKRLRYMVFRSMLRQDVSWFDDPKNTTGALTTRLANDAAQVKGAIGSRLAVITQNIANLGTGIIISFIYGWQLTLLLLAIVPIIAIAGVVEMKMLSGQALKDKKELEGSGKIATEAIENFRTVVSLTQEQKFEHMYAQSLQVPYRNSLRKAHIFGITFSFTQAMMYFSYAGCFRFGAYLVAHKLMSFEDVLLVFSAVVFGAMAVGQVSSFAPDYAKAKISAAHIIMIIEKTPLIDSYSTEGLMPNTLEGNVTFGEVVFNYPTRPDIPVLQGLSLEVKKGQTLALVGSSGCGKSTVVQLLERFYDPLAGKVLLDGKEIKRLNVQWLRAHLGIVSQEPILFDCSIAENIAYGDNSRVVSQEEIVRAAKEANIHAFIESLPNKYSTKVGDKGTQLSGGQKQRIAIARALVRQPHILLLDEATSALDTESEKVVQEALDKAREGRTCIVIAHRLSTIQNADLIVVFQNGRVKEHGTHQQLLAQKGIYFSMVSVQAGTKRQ

With `CC(C)=CCCC(C)(OC1OC(CO)C(O)C(O)C1O)C1CCC2(C)C1C(O)CC1C3(C)CCC(O)C(C)(C)C3CCC12C` (stereo not shown) [CK, compound K] the “LAB-mediated deglycosylation (formation of deglycosylated ginsenoside from the incubated ginsenoside)” value (LAB [1]) was “the highest”, the Papp A→B at 20 μM (P-gp; LLC-PK1) was 0.14 ×10⁻⁶ cm/s and the Papp B→A at 20 μM (P-gp; LLC-PK1) was 8.25 ± 0.58 ×10⁻⁶ cm/s. The “CLint (intrinsic clearance)” value (P-gp; llc-pk1) was 690 µL/min, the “Oral BA” value [2] was 4.3% and the Cmax ([3]; male) was 5.1 ± 2.2 ng/mL. The AUC ([3]; male) was 57.9 ± 16.6 ng·h/mL, the MRT ([3]; male, MRT) was 17.2 ± 4.5 h and the Tmax ([3]; male, Tmax) was 8 ± 4 h.
With `CC(C)=CCCC(C)(OC1OC(CO)C(O)C(O)C1O)C1CCC2(C)C1C(O)CC1C3(C)CCC(OC4OC(CO)C(O)C(O)C4O)C(C)(C)C3CCC12C` (stereo not shown) [GF2] the “LAB-mediated deglycosylation (formation of deglycosylated ginsenoside from the incubated ginsenoside)” value (LAB [1]) was “negligible”, the “Relative abundance / metabolic activity following fermentation of RGE with LAB” value (LAB [4]; RGE incubated with LAB (1 billion CFU) for 7 days at 37 °C, result in words) was “remained unchanged” and the Papp A→B at 50 µM [5] was less than 0.3 ×10⁻⁶ cm/s.
For `CC(C)=CCC[C@](C)(O[C@@H]1O[C@H](CO)[C@@H](O)[C@H](O)[C@H]1O)[C@H]1CC[C@]2(C)[C@@H]1[C@H](O)C[C@@H]1[C@@]3(C)CC[C@H](O[C@@H]4O[C@H](CO)[C@@H](O)[C@H](O)[C@H]4O[C@@H]4O[C@H](CO)[C@@H](O)[C@H](O)[C@H]4O)C(C)(C)[C@@H]3CC[C@]12C` [GRd], the “Oral bioavailability (BA)” value [2] is given as “less than 5%”, the Cmax [3] is given as 2.1 ± 0.9 ng/mL and the MRT [3] is given as 18.2 ± 1.4 h. For the same compound, the Tmax [3] was 7.5 ± 5.8 h, the AUC [3] was 37.9 ± 12.6 ng·h/mL and the “Relative abundance / metabolic activity following fermentation of RGE with LAB” value (LAB [4]) was “marked decrease”. The “A to B Papp” value (CaCo-2 cells) was “below 0.3 × 10^−6 cm/s”.

— article PMC9775652, “Concomitant Administration of Red Ginseng Extract with Lactic Acid Bacteria Increases the Plasma Concentration of Deglycosylated Ginsenosides in Healthy Human Subjects” (Biomolecules, 2022)
